How the values were obtained:
thrombin (THR) = biological target: T1, thrombin (THR) (Homo sapiens, UniProt P00734); test: THR inhibitory activity assay (chromogenic substrate S-2238, absorbance at 405 nm); format: biochemical; settings: in vitro enzymatic activity assay
T1 construct: purchased Sigma-Aldrich
Protocol: (§1) A stock solution of THR (125 U/mL) was prepared by dissolving 4.16 mg of THR in 1.0 mL of PBS. A stock solution of FXa (0.5 IU/mL) was prepared by dissolving 5.0 mg of FXa in 1.0 mL of PBS. Stock solutions of S-2238 (2 mg/mL) and S-2765 (2.5 mg/mL) were prepared in PBS. The DC extract samples (10 mg/mL) were prepared in a PBS buffer and diluted to 5.0 and 2.5 mg/mL as necessary.
(§2) THR and FXa inhibitory activity assays were performed with an iMark™ Microplate Absorbance Reader (Bio-Rad Laboratories, Inc., Hercules, CA, USA). A DC extract solution of 50 μL and a 50 μL THR solution were mixed and incubated for 10 min at 37 °C. Subsequently, a 100 μL S-2238 (2 mg/mL) solution as the chromogenic substrate was added to start the reaction in the microplate reader. The absorbance was monitored at 405 nm every 30 s for 10 min, and each group was measured three times. […] Except for the enzyme solution and chromogenic substrate, the procedure for assessing the FXa inhibitory activity was exactly the same as for THR. The inhibition rate (%) of THR and FXa was calculated using Formula (1). (1) I(%)=[(dA/dt)blank−(dA/dt)sample]/(dA/dt)blank where I(%) represents the % of inhibition, and (dA/dt)blank and (dA/dt)sample represent the reaction rate of the control and experimental group, respectively. The results were expressed as the mean ± standard deviation (SD) of three experiments.

factor Xa (FXa) = factor Xa (FXa) (Homo sapiens, UniProt P00742); test: FXa inhibitory activity assay (chromogenic substrate S-2765, absorbance at 405 nm); format: biochemical; settings: in vitro enzymatic activity assay
Sequence of factor Xa (FXa) (P00742 235-488 limits assumed): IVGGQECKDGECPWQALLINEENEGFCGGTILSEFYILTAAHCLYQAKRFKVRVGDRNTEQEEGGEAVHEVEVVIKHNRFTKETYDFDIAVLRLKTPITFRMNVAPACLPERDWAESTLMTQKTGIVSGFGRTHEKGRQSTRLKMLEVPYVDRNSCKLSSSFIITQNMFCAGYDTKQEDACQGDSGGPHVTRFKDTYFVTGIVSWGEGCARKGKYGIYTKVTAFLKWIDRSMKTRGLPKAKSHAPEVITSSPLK
Sequence of factor Xa (FXa) (P00742 41-179 partner limits assumed): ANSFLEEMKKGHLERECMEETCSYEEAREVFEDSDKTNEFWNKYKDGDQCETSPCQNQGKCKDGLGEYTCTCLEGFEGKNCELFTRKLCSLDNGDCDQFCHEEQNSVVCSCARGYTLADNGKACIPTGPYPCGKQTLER
Protocol: as §1, §2

SMILES	IC50 (thrombin (THR)) [µM]	IC50 (factor Xa (FXa)) [µM]
CCC/C=C1\OC(=O)C2=C1CCC=C2 [Z-ligustilide]	1460	
COc1cc(/C=C/C(=O)O)ccc1O [Ferulic acid]		2490
Cc1coc2c1C(=O)C(=O)c1c-2ccc2c1CCCC2(C)C [Tanshinone IIA]		138
O=C(/C=C/c1ccc(O)c(O)c1)O[C@@H]1C[C@](O)(C(=O)O)C[C@@H](O)[C@H]1O [Chlorogenic acid]	185	
Cc1coc2c1C(=O)C(=O)c1c-2ccc2c(C)cccc12 [Tanshinone I]		113
O=C(O)/C=C/c1ccc(O)c(O)c1 [Caffeic acid]		3790

From article PMC8658787, “Screening of Potential Thrombin and Factor Xa Inhibitors from the Danshen–Chuanxiong Herbal Pair through a Spectrum–Effect Relationship Analysis” (Molecules, 2021)
